From patent US12285446B2, “Compositions and methods for improving mitochondrial function” (priority 2018, dated 2025)

Tests used:
[1] = system: UbV-gfp; experiment: UbV-gfp reporter; design: species or system Caenorhabditis elegans; conditions: in vivo
Description: To address how Gluconacetobacter spp feeding improves mitochondrial function, a variety of transgenic worm strains were tested, including worms that carry a construct encoding a fusion protein comprising a GFP reporter protein and a gene product that is involved in stress response, mitochondrial activity, peroxisomal function, innate immune response, and different signaling pathways (Table 1; FIGS. 2C-2K; FIGS. 6C-6L; FIGS. 7A-7D).

[2] = system: phsp-6::gfp induced by human Aβ1-42; experiment: phsp-6::gfp UPRmt reporter in worms with panneuronal human Aβ1-42; assay type: in vivo, Caenorhabditis elegans; conditions: compound treatment
Description: Thus, it is possible to screen for interventions that will reduce the UPRmt induction by modulating the Aβ aggregation or toxicity of Aβ on mitochondria.
For the screen, thirty microbial strains including the negative control bacteria E. coli OP50 were grown in appropriate culture media conditions and spotted onto standard nematode growth medium plates. ˜30 synchronized L1-larval-stage transgenic worm expressing Aβ 1-42 or tau in the pan-neurons were dropped onto the seeded plates and scored visually after 4 days under a fluorescent microscope for changes in phsp-6::gfp expression (FIG. 13).

SMILES | UbV-gfp expression [1] | induction of UPRmt (phsp-6::gfp) in Aβ worms treated with compound [2]
CC(C)C[C@H](NC(=O)[C@H](Cc1ccccc1)NC(=O)c1cnccn1)B(O)O [Bortezomib] | stabilizes UbV-gfp | –
Cc1ccc2c(c1)sc(-c1ccc(N(C)C)cc1)[n+]2C.[Cl-] [Thioflavin T] | – | induction of UPRmt was reduced
